In US20250213183A1, “SYSTEM AND METHOD OF MONITORING NOCICEPTION AND ANALGESIA DURING ADMINISTRATION OF GENERAL ANESTHESIA” (The General Hospital Corporation, priority 2022, published 2025):

Details: single subject, forehead sensor, after propofol; FIG. 6B

CC(C)c1cccc(C(C)C)c1O [propofol]
EDA skin conductance response (SCR) after induction of general anesthesia: < 5 micro-Siemens
